Reference: publication PMC8617627, “Novel DYRK1A Inhibitor Rescues Learning and Memory Deficits in a Mouse Model of Down Syndrome” (Pharmaceuticals, 2021)
Read-outs that look alike come from different tables or passages of the source.

Columns and labels:
Experiment in all cases: Kinase profile (33P ATP filter binding)
Format in all cases: biochemical
EF2K = biological target: T1, EF2K (Homo sapiens, UniProt O00418); conditions: read-out: Remaining protein kinase activity
T1 sequence (O00418 1-725): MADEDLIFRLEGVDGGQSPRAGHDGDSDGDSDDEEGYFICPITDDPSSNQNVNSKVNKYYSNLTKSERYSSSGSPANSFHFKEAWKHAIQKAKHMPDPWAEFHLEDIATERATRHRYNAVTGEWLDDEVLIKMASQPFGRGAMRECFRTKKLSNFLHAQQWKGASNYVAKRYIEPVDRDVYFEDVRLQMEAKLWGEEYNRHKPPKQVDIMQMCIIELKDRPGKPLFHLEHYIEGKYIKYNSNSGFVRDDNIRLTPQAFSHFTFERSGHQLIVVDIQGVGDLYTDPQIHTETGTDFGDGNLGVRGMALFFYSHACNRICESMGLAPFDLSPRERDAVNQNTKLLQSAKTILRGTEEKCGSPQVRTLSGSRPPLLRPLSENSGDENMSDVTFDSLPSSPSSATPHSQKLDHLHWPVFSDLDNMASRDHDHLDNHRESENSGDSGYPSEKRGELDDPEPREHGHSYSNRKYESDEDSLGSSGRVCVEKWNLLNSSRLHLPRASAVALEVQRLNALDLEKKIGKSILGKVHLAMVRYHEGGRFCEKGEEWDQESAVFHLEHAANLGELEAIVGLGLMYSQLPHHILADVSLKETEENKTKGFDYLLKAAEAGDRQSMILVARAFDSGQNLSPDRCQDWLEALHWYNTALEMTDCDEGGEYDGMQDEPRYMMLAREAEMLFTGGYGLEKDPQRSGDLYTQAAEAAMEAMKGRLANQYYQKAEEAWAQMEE

EIF2AK3 = biological target: T2, EIF2AK3 (Homo sapiens, UniProt Q9NZJ5); conditions: read-out: Remaining protein kinase activity
T2 sequence (Q9NZJ5 30-1116): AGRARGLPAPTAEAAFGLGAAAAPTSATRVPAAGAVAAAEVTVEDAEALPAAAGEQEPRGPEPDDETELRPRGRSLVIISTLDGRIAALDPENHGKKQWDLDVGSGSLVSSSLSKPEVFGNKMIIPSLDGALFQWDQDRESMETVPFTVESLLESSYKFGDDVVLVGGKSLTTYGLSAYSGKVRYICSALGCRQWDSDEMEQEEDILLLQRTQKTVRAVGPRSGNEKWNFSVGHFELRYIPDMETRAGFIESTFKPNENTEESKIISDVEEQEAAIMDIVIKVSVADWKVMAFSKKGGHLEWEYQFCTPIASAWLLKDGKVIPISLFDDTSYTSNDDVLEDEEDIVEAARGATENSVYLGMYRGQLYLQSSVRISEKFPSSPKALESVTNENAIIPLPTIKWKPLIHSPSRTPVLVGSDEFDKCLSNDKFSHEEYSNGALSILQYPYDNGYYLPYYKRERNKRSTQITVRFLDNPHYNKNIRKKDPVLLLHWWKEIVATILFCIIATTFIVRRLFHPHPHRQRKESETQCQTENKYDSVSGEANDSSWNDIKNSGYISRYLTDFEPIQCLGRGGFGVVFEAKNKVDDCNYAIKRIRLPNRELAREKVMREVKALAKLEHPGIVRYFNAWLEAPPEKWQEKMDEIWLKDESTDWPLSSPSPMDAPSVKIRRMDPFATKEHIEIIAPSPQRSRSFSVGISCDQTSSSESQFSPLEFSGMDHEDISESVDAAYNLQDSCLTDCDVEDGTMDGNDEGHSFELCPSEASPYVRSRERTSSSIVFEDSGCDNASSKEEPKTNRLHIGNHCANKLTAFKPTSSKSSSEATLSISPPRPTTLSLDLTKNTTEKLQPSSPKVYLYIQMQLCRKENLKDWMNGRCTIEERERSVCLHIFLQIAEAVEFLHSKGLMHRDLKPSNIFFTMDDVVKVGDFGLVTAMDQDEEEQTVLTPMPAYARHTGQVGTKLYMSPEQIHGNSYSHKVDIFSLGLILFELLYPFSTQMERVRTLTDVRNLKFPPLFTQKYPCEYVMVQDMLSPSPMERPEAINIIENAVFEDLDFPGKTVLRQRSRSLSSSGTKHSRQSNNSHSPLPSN

MARK4 = biological target: T3, MARK4 (Homo sapiens, UniProt Q96L34)
T3 sequence (Q96L34 1-752): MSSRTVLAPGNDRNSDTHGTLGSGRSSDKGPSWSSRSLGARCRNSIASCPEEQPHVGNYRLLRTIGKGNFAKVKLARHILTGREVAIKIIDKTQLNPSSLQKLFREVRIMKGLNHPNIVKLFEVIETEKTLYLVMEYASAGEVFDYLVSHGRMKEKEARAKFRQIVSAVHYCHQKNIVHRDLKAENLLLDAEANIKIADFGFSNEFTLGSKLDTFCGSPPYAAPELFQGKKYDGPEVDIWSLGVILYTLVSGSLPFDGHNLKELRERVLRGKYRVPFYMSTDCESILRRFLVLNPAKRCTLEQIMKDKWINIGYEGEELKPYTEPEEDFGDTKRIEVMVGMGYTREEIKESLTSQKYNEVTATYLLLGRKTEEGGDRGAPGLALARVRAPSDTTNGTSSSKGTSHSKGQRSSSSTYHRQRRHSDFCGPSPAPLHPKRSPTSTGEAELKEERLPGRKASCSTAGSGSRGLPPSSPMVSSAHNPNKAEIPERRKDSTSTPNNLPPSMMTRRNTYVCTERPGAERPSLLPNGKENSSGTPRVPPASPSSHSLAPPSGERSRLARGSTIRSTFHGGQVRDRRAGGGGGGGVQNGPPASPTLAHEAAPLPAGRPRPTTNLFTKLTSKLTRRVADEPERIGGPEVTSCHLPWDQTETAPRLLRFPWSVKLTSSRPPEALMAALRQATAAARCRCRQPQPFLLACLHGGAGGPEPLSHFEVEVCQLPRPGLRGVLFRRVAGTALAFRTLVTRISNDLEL

SIK3 = SIK3 (Homo sapiens, UniProt Q9Y2K2)
Chain of SIK3 (Q9Y2K2 whole entry): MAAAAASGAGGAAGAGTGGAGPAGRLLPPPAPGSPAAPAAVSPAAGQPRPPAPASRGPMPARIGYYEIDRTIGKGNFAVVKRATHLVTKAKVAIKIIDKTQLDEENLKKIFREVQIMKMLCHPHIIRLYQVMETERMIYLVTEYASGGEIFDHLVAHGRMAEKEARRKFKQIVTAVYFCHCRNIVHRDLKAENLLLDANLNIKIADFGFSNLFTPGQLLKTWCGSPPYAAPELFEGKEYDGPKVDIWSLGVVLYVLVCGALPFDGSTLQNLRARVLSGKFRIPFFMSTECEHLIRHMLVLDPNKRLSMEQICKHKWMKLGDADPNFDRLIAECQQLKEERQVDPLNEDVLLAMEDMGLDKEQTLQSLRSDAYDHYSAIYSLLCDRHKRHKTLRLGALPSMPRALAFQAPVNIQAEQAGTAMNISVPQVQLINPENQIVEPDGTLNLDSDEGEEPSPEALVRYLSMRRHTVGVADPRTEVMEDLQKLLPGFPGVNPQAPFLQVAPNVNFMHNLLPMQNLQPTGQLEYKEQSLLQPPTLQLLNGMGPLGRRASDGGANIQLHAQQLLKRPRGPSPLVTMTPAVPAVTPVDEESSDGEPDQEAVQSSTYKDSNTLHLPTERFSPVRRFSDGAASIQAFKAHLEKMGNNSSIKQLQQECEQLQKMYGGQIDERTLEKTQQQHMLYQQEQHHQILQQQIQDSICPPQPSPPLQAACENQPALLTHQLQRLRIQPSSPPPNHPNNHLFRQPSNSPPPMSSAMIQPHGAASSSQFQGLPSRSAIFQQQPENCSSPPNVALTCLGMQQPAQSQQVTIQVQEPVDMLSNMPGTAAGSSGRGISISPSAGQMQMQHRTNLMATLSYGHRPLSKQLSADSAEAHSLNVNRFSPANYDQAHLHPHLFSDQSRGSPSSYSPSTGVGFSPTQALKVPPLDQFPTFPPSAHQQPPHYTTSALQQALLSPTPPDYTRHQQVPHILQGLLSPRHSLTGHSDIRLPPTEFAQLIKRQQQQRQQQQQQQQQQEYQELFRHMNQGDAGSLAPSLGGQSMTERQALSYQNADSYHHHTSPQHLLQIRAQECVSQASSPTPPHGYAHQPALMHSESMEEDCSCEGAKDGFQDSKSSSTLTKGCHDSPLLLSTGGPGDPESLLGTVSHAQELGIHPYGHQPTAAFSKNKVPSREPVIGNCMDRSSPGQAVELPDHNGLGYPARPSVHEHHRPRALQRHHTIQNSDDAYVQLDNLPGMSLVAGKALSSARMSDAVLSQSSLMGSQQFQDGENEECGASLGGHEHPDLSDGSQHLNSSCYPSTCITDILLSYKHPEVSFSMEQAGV

COc1ccc2sc(-c3cncc(N)c3)nc2c1 [compound 1, 5-(5-Methoxybenzo[d]thiazol-2-yl)pyridin-3-amine]
remaining activity at 1 µM (EF2K; EF2K, 1 μM): 112%
remaining activity at 100 µM (EF2K; EF2K, 100 μM): 84%
remaining activity at 1 µM (EIF2AK3; EIF2AK3, 1 μM): 122%
remaining activity at 100 µM (EIF2AK3; EIF2AK3, 100 μM): 84%
Remaining protein kinase activity (MARK4; 1 μM): 131%
Remaining protein kinase activity (MARK4; 100 μM): 58%
Remaining protein kinase activity (SIK3; 1 μM): 106%
Remaining protein kinase activity (SIK3; 100 μM): 19%

COc1ccc2sc(-c3cncc(NC(C)=O)c3)nc2c1 [PST-001, N-(5-(5-Methoxybenzo[d]thiazol-2-yl)pyridin-3-yl)acetamide]
remaining activity at 1 µM (EF2K): 113%
remaining activity at 100 µM (EF2K): 106%
remaining activity at 1 µM (EIF2AK3): 123%
remaining activity at 100 µM (EIF2AK3): 118%
Remaining protein kinase activity (MARK4; 1 μM): 121%
Remaining protein kinase activity (MARK4; 100 μM): 103%
Remaining protein kinase activity (SIK3; 1 μM): 114%
Remaining protein kinase activity (SIK3; 100 μM): 78%
